Article PMC5218480 (PLoS ONE, 2017)

System: MV-4-11 cells
Assay: Gene expression microarray analysis (Affymetrix PrimeView) and GSEA
Format: cell-based, human
Set-up: RFU PODN (11730768_x_at) / Fold change /veh PODN (11730768_x_at) / RFU LINC00158 (11744669_a_at) / Fold change /veh LINC00158 (11744669_a_at) / RFU DUSP10 (11751237_a_at) / Fold change /veh DUSP10 (11751237_a_at) / RFU ID3 (11757404_x_at) / Fold change /veh ID3 (11757404_x_at) / RFU PLEKHG5 (11737974_s_at) / Fold change /veh PLEKHG5 (11737974_s_at) / RFU LRRC4B (11730491_at) / Fold change /veh LRRC4B (11730491_at) / RFU GIMAP4 (11747438_a_at) / Fold change /veh GIMAP4 (11747438_a_at) / RFU KRT8 (11758183_x_at) / Fold change /veh KRT8 (11758183_x_at) / RFU CNN1 (11734310_a_at) / Fold change /veh CNN1 (11734310_a_at) / RFU VPS37D (11726825_at) / Fold change /veh VPS37D (11726825_at) / RFU C10orf10 (11716522_x_at) / Fold change /veh C10orf10 (11716522_x_at) / RFU KIR2DL2 /// KIR2DL4 /// KIR2DL5A /// KIR2DL5B /// KIR2DS1 /// KIR2DS2 /// KIR2DS3 /// KIR2DS4 /// KIR3DL3 /// KIR3DL3 /// KIR3DS1 (11738374_at) / Fold change /veh KIR2DL2 /// KIR2DL4 /// KIR2DL5A /// KIR2DL5B /// KIR2DS1 /// KIR2DS2 /// KIR2DS3 /// KIR2DS4 /// KIR3DL3 /// KIR3DL3 /// KIR3DS1 (11738374_at) / RFU C1QL1 (11718748_at) / Fold change /veh C1QL1 (11718748_at) / RFU TMPRSS4 (11747572_a_at) / Fold change /veh TMPRSS4 (11747572_a_at) / RFU HAMP (11756126_x_at) / Fold change /veh HAMP (11756126_x_at) / RFU RNFT2 (11725882_a_at) / Fold change /veh RNFT2 (11725882_a_at) / RFU NR4A2 (11747474_a_at) / Fold change /veh NR4A2 (11747474_a_at) / RFU ABCC12 (11746883_a_at) / Fold change /veh ABCC12 (11746883_a_at) / RFU TMEM136 (11760407_x_at) / Fold change /veh TMEM136 (11760407_x_at) / RFU CLDN22 /// WWC2 (11732394_at) / Fold change /veh CLDN22 /// WWC2 (11732394_at) / RFU HLA-DPB1 (11760878_x_at) / Fold change /veh HLA-DPB1 (11760878_x_at) / RFU SPINT1 (11716480_a_at) / Fold change /veh SPINT1 (11716480_a_at) / RFU GAP43 (11754022_s_at) / Fold change /veh GAP43 (11754022_s_at) / RFU A4GNT (11735810_at) / Fold change /veh A4GNT (11735810_at) / RFU PRB3 (11715151_x_at) / Fold change /veh PRB3 (11715151_x_at) / RFU TUBB4B (11761932_at) / Fold change /veh TUBB4B (11761932_at) / RFU CAPN14 (11732068_a_at) / Fold change /veh CAPN14 (11732068_a_at) / RFU TMCC2 (11721928_a_at) / Fold change /veh TMCC2 (11721928_a_at) / RFU IRGQ (11745062_a_at) / Fold change /veh IRGQ (11745062_a_at) / RFU FAM174B (11720279_a_at) / Fold change /veh FAM174B (11720279_a_at) / RFU TMPRSS4 (11748680_a_at) / Fold change /veh TMPRSS4 (11748680_a_at) / RFU FAM212B (11763350_a_at) / Fold change /veh FAM212B (11763350_a_at) / RFU PLEKHG5 (11743358_a_at) / Fold change /veh PLEKHG5 (11743358_a_at) / RFU ZSCAN30 (11745921_a_at) / Fold change /veh ZSCAN30 (11745921_a_at) / RFU CMKLR1 (11741424_a_at) / Fold change /veh CMKLR1 (11741424_a_at) / RFU LOC101060620 /// MAPK8IP1 (11723275_at) / Fold change /veh LOC101060620 /// MAPK8IP1 (11723275_at) / RFU SPTSSB (11747773_x_at) / Fold change /veh SPTSSB (11747773_x_at) / RFU PRSS12 (11739890_at) / Fold change /veh PRSS12 (11739890_at) / RFU BIN1 (11741810_x_at) / Fold change /veh BIN1 (11741810_x_at) / RFU WNT11 (11732464_a_at) / Fold change /veh WNT11 (11732464_a_at) / RFU C10orf10 (11716521_a_at) / Fold change /veh C10orf10 (11716521_a_at) / RFU C5orf56 (11738089_at) / Fold change /veh C5orf56 (11738089_at) / RFU CYB561 (11721691_x_at) / Fold change /veh CYB561 (11721691_x_at) / RFU ANKRD19P (11752326_a_at) / Fold change /veh ANKRD19P (11752326_a_at) / RFU OR2T12 /// OR2T33 /// OR2T8 (11738714_s_at) / Fold change /veh OR2T12 /// OR2T33 /// OR2T8 (11738714_s_at) / RFU VCAN (11748164_a_at) / Fold change /veh VCAN (11748164_a_at) / RFU JSRP1 (11732532_at) / Fold change /veh JSRP1 (11732532_at) / RFU KRTAP10-11 (11738290_x_at) / Fold change /veh KRTAP10-11 (11738290_x_at) / RFU MYO3A (11730013_a_at) / Fold change /veh MYO3A (11730013_a_at) / RFU EBF3 (11725865_a_at) / Fold change /veh EBF3 (11725865_a_at) / RFU CAMK2N1 (11719241_x_at) / Fold change /veh CAMK2N1 (11719241_x_at) / RFU C5orf56 (11738088_a_at) / Fold change /veh C5orf56 (11738088_a_at) / RFU OLFML3 (11715873_a_at) / Fold change /veh OLFML3 (11715873_a_at) / RFU LOC100653217 /// NTM (11731650_a_at) / Fold change /veh LOC100653217 /// NTM (11731650_a_at) / RFU MAPK11 (11762145_a_at) / Fold change /veh MAPK11 (11762145_a_at) / RFU FIZ1 (11724087_x_at) / Fold change /veh FIZ1 (11724087_x_at) / RFU OASL (11726364_x_at) / Fold change /veh OASL (11726364_x_at) / RFU SOX15 (11748057_x_at) / Fold change /veh SOX15 (11748057_x_at) / RFU CD79A (11719716_a_at) / Fold change /veh CD79A (11719716_a_at) / RFU HIST1H1D (11736915_at) / Fold change /veh HIST1H1D (11736915_at) / RFU CASKIN2 (11723855_a_at) / Fold change /veh CASKIN2 (11723855_a_at) / RFU LOC730098 (11760151_x_at) / Fold change /veh LOC730098 (11760151_x_at) / RFU OR4N2 (11742367_at) / Fold change /veh OR4N2 (11742367_at) / RFU PRRT2 (11749266_a_at) / Fold change /veh PRRT2 (11749266_a_at) / RFU SNX32 (11753110_a_at) / Fold change /veh SNX32 (11753110_a_at) / RFU CDHR5 (11726645_a_at) / Fold change /veh CDHR5 (11726645_a_at) / RFU RCAN1 (11760418_a_at) / Fold change /veh RCAN1 (11760418_a_at) / RFU FAM167A (11723789_a_at) / Fold change /veh FAM167A (11723789_a_at) / RFU FAM26E (11764081_at) / Fold change /veh FAM26E (11764081_at) / RFU ISYNA1 (11749810_s_at) / Fold change /veh ISYNA1 (11749810_s_at) / RFU ACY1 (11761880_at) / Fold change /veh ACY1 (11761880_at) / RFU 11764098_at / Fold change /veh 11764098_at / RFU SAMD14 (11745864_x_at) / Fold change /veh SAMD14 (11745864_x_at) / RFU NPB (11741838_a_at) / Fold change /veh NPB (11741838_a_at) / RFU TMPRSS6 (11731388_a_at) / Fold change /veh TMPRSS6 (11731388_a_at) / RFU KRTAP10-2 (11738614_at) / Fold change /veh KRTAP10-2 (11738614_at) / RFU ARHGAP8 /// PRR5-ARHGAP8 (11727945_x_at) / Fold change /veh ARHGAP8 /// PRR5-ARHGAP8 (11727945_x_at) / RFU KRTAP5-7 /// NADSYN1 (11734609_at) / Fold change /veh KRTAP5-7 /// NADSYN1 (11734609_at) / RFU RASL12 (11751679_a_at) / Fold change /veh RASL12 (11751679_a_at) / RFU CDKN2B (11736163_a_at) / Fold change /veh CDKN2B (11736163_a_at) / RFU PRF1 (11729649_at) / Fold change /veh PRF1 (11729649_at) / RFU, ZNF638 /// ZNF638-IT1 / Fold change vs veh, ZNF638 /// ZNF638-IT1 / RFU, PANK3 / Fold change vs veh, PANK3 / RFU, SH3YL1 / Fold change vs veh, SH3YL1 / RFU, ZEB2 / Fold change vs veh, ZEB2 / RFU, NRIP1 / Fold change vs veh, NRIP1 / RFU, PTTG1IP / Fold change vs veh, PTTG1IP / RFU, CAPN2 / Fold change vs veh, CAPN2 / RFU, MED14 / Fold change vs veh, MED14 / RFU, SNORA58 / Fold change vs veh, SNORA58 / RFU, C1orf63 / Fold change vs veh, C1orf63 / RFU, LRRFIP1 / Fold change vs veh, LRRFIP1 / RFU, NDUFAF7 / Fold change vs veh, NDUFAF7 / RFU, SLC12A2 / Fold change vs veh, SLC12A2 / RFU, IBTK / Fold change vs veh, IBTK / RFU, ESF1 / Fold change vs veh, ESF1 / Fold change vs veh, TMEM50B / RFU, TAOK1 / Fold change vs veh, TAOK1 / RFU, ACBD3 / Fold change vs veh, ACBD3 / RFU, TMA16 / Fold change vs veh, TMA16 / RFU, RWDD3 / Fold change vs veh, RWDD3 / RFU, BCAT1 / Fold change vs veh, BCAT1 / RFU, EDEM3 / Fold change vs veh, EDEM3 / RFU, TMEM33 / Fold change vs veh, TMEM33 / RFU, WDR75 / Fold change vs veh, WDR75 / RFU, AHCTF1 / Fold change vs veh, AHCTF1 / RFU, TFRC / Fold change vs veh, TFRC / RFU, ZDHHC17 / Fold change vs veh, ZDHHC17 / RFU, NOM1 / Fold change vs veh, NOM1 / RFU, ARL8B / Fold change vs veh, ARL8B / RFU, ZBTB11 / Fold change vs veh, ZBTB11 / RFU, TAMM41 / Fold change vs veh, TAMM41 / RFU, KIAA1704 /// LOC100996395 / Fold change vs veh, KIAA1704 /// LOC100996395 / RFU, ING1 / Fold change vs veh, ING1 / RFU, TRMT61B / Fold change vs veh, TRMT61B / RFU, FUBP3 / Fold change vs veh, FUBP3 / RFU, TP53 / Fold change vs veh, TP53 / RFU, TNKS2 / Fold change vs veh, TNKS2 / RFU, ZFP14 / Fold change vs veh, ZFP14 / RFU, ACTR2 / Fold change vs veh, ACTR2 / RFU, PPP3R1 / Fold change vs veh, PPP3R1 / RFU, PIK3R1 / Fold change vs veh, PIK3R1 / RFU, HNRNPA1 / Fold change vs veh, HNRNPA1 / RFU, RNF170 / Fold change vs veh, RNF170 / RFU, ZNF28 / Fold change vs veh, ZNF28 / RFU, RNGTT / Fold change vs veh, RNGTT / RFU, OGT / Fold change vs veh, OGT / RFU, BRD1 / Fold change vs veh, BRD1 / RFU, MARS / Fold change vs veh, MARS / RFU, ZNF655 / Fold change vs veh, ZNF655 / RFU, FAHD1 / Fold change vs veh, FAHD1 / RFU, BDP1 / Fold change vs veh, BDP1 / RFU, LRRCC1 / Fold change vs veh, LRRCC1 / RFU, ARID1A / Fold change vs veh, ARID1A / RFU, ZNF146 / Fold change vs veh, ZNF146 / RFU, ZNF330 / Fold change vs veh, ZNF330 / RFU, GPN3 / Fold change vs veh, GPN3 / RFU, C9orf123 / Fold change vs veh, C9orf123 / RFU, N4BP2L2 / Fold change vs veh, N4BP2L2 / RFU, ARFIP1 / Fold change vs veh, ARFIP1 / RFU, FAM179B / Fold change vs veh, FAM179B / RFU, BCL10 / Fold change vs veh, BCL10 / RFU, UHRF1BP1L / Fold change vs veh, UHRF1BP1L / RFU, BET1 / Fold change vs veh, BET1 / RFU, CNOT2 / Fold change vs veh, CNOT2 / RFU, ZNF268 / Fold change vs veh, ZNF268 / Fold change vs veh, ZNF507 / RFU, DGCR2 / Fold change vs veh, DGCR2 / RFU, WDSUB1 / Fold change vs veh, WDSUB1 / Fold change vs veh, HSP90B1 /// MIR3652 / RFU, ADSS / Fold change vs veh, ADSS / RFU, GK / Fold change vs veh, GK / RFU, ZNF148 / Fold change vs veh, ZNF148 / RFU, TAF9 / Fold change vs veh, TAF9 / RFU, SLC1A5 / Fold change vs veh, SLC1A5 / RFU, SLMO2 / Fold change vs veh, SLMO2 / RFU, ABCC4 / Fold change vs veh, ABCC4 / RFU, LOC101060439 /// RAP1B / Fold change vs veh, LOC101060439 /// RAP1B / RFU, RFX7 / Fold change vs veh, RFX7 / RFU, GTPBP10 / Fold change vs veh, GTPBP10 / RFU, CNEP1R1 / Fold change vs veh, CNEP1R1 / RFU, BIVM-ERCC5 /// ERCC5 / Fold change vs veh, BIVM-ERCC5 /// ERCC5 / RFU, ILF3 / Fold change vs veh, ILF3 / RFU 11762660_at / Fold change /veh 11762660_at / RFU VCAN (11757783_s_at) / Fold change /veh VCAN (11757783_s_at) / RFU DDX43 (11728927_at) / Fold change /veh DDX43 (11728927_at) / RFU KRT8 (11758188_x_at) / Fold change /veh KRT8 (11758188_x_at) / RFU NKD1 (11759106_at) / Fold change /veh NKD1 (11759106_at) / RFU SRD5A1 (11742802_a_at) / Fold change /veh SRD5A1 (11742802_a_at) / RFU TPSAB1 /// TPSB2 (11721975_s_at) / Fold change /veh TPSAB1 /// TPSB2 (11721975_s_at) / RFU GSTM3 (11746129_a_at) / Fold change /veh GSTM3 (11746129_a_at) / RFU IL23R (11737362_x_at) / Fold change /veh IL23R (11737362_x_at) / RFU TMEM51 (11727254_a_at) / Fold change /veh TMEM51 (11727254_a_at) / RFU PIWIL2 (11732686_x_at) / Fold change /veh PIWIL2 (11732686_x_at) / RFU ORM1 (11744905_x_at) / Fold change /veh ORM1 (11744905_x_at) / RFU CCDC152 (11743942_at) / Fold change /veh CCDC152 (11743942_at) / RFU ECM1 (11717891_a_at) / Fold change /veh ECM1 (11717891_a_at) / RFU IL23R (11748794_a_at) / Fold change /veh IL23R (11748794_a_at) / RFU TNFAIP8L3 (11732012_x_at) / Fold change /veh TNFAIP8L3 (11732012_x_at) / RFU MBOAT4 (11741988_at) / Fold change /veh MBOAT4 (11741988_at) / RFU 11764193_at / Fold change /veh 11764193_at / RFU TMEM53 (11763286_at) / Fold change /veh TMEM53 (11763286_at) / RFU MAGEB2 (11727129_at) / Fold change /veh MAGEB2 (11727129_at) / RFU TMEM200A (11744735_a_at) / Fold change /veh TMEM200A (11744735_a_at) / RFU CCDC152 (11751479_a_at) / Fold change /veh CCDC152 (11751479_a_at) / RFU FAM211A (11726209_a_at) / Fold change /veh FAM211A (11726209_a_at) / RFU RGS16 (11746705_a_at) / Fold change /veh RGS16 (11746705_a_at) / RFU VCAN (11755009_s_at) / Fold change /veh VCAN (11755009_s_at) / RFU RHOB (11743442_s_at) / Fold change /veh RHOB (11743442_s_at) / RFU RGS16 (11720943_a_at) / Fold change /veh RGS16 (11720943_a_at) / RFU RGS16 (11720944_at) / Fold change /veh RGS16 (11720944_at) / RFU, VPS4B / Fold change vs veh, VPS4B / RFU, CREB1 / Fold change vs veh, CREB1 / RFU, DNAJC13 / Fold change vs veh, DNAJC13 / RFU, GNAQ / Fold change vs veh, GNAQ / RFU, CDK5R1 / Fold change vs veh, CDK5R1 / RFU, ZRANB3 / Fold change vs veh, ZRANB3 / RFU, CUL4A / Fold change vs veh, CUL4A / RFU, CCNY / Fold change vs veh, CCNY / RFU, UFL1 / Fold change vs veh, UFL1 / RFU, COG3 / Fold change vs veh, COG3 / RFU, DIAPH2 / Fold change vs veh, DIAPH2 / RFU, SKA2 / Fold change vs veh, SKA2 / RFU, AFF3 / Fold change vs veh, AFF3 / RFU, LMF1 / Fold change vs veh, LMF1 / RFU, IPO11 / Fold change vs veh, IPO11 / RFU, DFFB / Fold change vs veh, DFFB / RFU, FOXP1 / Fold change vs veh, FOXP1 / RFU, CARD8 / Fold change vs veh, CARD8 / RFU, STRN3 / Fold change vs veh, STRN3 / RFU, ADK / Fold change vs veh, ADK / RFU, RASSF2 / Fold change vs veh, RASSF2 / RFU, WIPF1 / Fold change vs veh, WIPF1 / RFU, LARP1B / Fold change vs veh, LARP1B / RFU, RASA1 / Fold change vs veh, RASA1 / RFU, RB1 / Fold change vs veh, RB1 / RFU, PPFIA1 / Fold change vs veh, PPFIA1 / RFU, MAT2A / Fold change vs veh, MAT2A / RFU, CCT5 / Fold change vs veh, CCT5 / RFU, WDR92 / Fold change vs veh, WDR92 / RFU, CUX1 / Fold change vs veh, CUX1 / RFU, TTC7A / Fold change vs veh, TTC7A / RFU, TMEM135 / Fold change vs veh, TMEM135 / RFU, DEPTOR / Fold change vs veh, DEPTOR / RFU, CPM / Fold change vs veh, CPM / RFU, DNAJB6 / Fold change vs veh, DNAJB6 / RFU, CACNA2D3 / Fold change vs veh, CACNA2D3 / RFU, DTX4 / Fold change vs veh, DTX4 / RFU, TFCP2 / Fold change vs veh, TFCP2 / RFU, GMCL1 /// GMCL1P1 / Fold change vs veh, GMCL1 /// GMCL1P1 / RFU, AEBP2 / Fold change vs veh, AEBP2 / RFU, SNHG1 /// SNORD22 /// SNORD25 /// SNORD26 /// SNORD27 /// SNORD28 /// SNORD29 /// SNORD31 / Fold change vs veh, SNHG1 /// SNORD22 /// SNORD25 /// SNORD26 /// SNORD27 /// SNORD28 /// SNORD29 /// SNORD31 / Fold change (Aza/veh), C12orf56 (ProbeSet 11735607_a_at) / Fold change (ACY-1035/veh), C12orf56 (ProbeSet 11735607_a_at) / Fold change (Aza/veh), FGFR1OP (ProbeSet 11751329_s_at) / Fold change (ACY-1035/veh), FGFR1OP (ProbeSet 11751329_s_at) / Fold change (Aza/veh), VPS36 (ProbeSet 11739960_a_at) / Fold change (ACY-1035/veh), VPS36 (ProbeSet 11739960_a_at) / RFU SYPL1 (11715823_x_at) / Fold change /veh SYPL1 (11715823_x_at) / RFU IGFBP7 (11715501_s_at) / Fold change /veh IGFBP7 (11715501_s_at) / RFU REEP3 (11722064_at) / Fold change /veh REEP3 (11722064_at) / RFU IGLL1 (11728026_x_at) / Fold change /veh IGLL1 (11728026_x_at): dose or concentration left out as unconfirmed
Conditions: ProbeSet 11741123_x_at; LIST D

Compound: Nc1ccc(-c2cccs2)cc1NC(=O)c1ccc2c(c1)cc(C1CC1)n2CCN1CCOCC1 [ACY-1035]
- Fold change vs veh, ADK: 0.96
